Data from paper PMC3861733 (Molecular & Cellular Proteomics : MCP, 2013).

Assays:
Saci-PP2A = biological target: T1, Saci-PP2A (Sulfolobus acidocaldarius, UniProt Q4JAD1); test: malachite green phosphate release assay, inhibition; assay type: biochemical; details: read-out: % activity at 10 nM
T1 sequence (Q4JAD1 1-293): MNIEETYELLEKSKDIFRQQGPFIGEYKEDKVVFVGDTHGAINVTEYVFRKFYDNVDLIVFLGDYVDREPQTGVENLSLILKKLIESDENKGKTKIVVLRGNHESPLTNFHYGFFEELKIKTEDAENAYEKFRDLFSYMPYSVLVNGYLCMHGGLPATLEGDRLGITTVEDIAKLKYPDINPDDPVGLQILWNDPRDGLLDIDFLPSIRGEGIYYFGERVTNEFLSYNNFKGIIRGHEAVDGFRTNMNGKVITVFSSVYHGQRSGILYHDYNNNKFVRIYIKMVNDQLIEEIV

purified protein = substrate: O=[N+]([O-])c1ccc(OP(=O)(O)O)cc1; test: purified protein; assay type: biochemical, Sulfolobus acidocaldarius; details: 0.1 M HEPES/KOH pH 6.5, 70 °C, substrate inhibition above 2 mM

C=C1[C@@H](O)[C@@H]2O[C@]3(CC[C@H](/C=C/[C@@H](C)[C@@H]4CC(C)=C[C@@]5(O[C@H](C[C@@](C)(O)C(=O)O)CC[C@H]5O)O4)O3)CC[C@H]2O[C@@H]1[C@@H](O)C[C@H](C)[C@H]1O[C@@]2(CCCCO2)CC[C@H]1C [okadaic acid]
activity at 0.01 µM (Saci-PP2A): 56%

B1: Saci-PTP (Sulfolobus acidocaldarius DSM 639) (protein)
chain: MYWVKKHVIGGSAIPYTQDEIIGWINEGVKRVLVLPEEFEIDEAWGSLEYYISVLKSFNIEYLYSPIPDGRAPSENQFLEIYKWLRKDKGNLVHCVGGIGRTGTILASYLVLEENMSAEEAIEEVRRVRPGAVQTYEQELFVFKVEKMKDKWKIL
Vmax (purified protein): 3.7 µmol/min/mg
